Where two headings read alike, the source gives them in different places. Some results are limits rather than exact numbers.

One assay has as its target CDK2/CCNE1 (Homo sapiens, UniProt P24941). In words: CDK2 homogeneous time-resolved fluorescence (HTRF) kinase assay. The class given is biochemical. To be noted: CDK2/CCNE. A digest of the protocol: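 An HTRF format measures CDK2/CCNE1 (3 nM) phosphorylating a 4E-BP1 Thr37/46 peptide at high (1 mM) ATP. Reactions run one hour at 23 °C, then EDTA-quenched and probed with Eu-labelled phospho-specific antibody.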
On the technique in general: TR-FRET usually uses a lanthanide donor and a delayed reading to cut background.

The target in the next assay is CDK1/CCNB1 (Homo sapiens, UniProt P06493). Nature of the assay: CDK1 homogeneous time-resolved fluorescence (HTRF) kinase assay. The class given is biochemical. To be noted: CDK1/CCNB. A digest of the protocol: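 0.5 nM CDK1/CCNB1 was preincubated 20 min at 23 °C with compound in HEPES pH-unspecified buffer (MgCl2, EGTA, DTT, Tween 20), then reacted 60 min with 1 mM ATP and 50 nM ULight-4E-BP1 (Thr37/46) peptide. EDTA-stopped reactions were detected with 2 nM Eu-anti-phospho antibody; IC50 from 11-point half-log titrations.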
Sequence of CDK1/CCNB1 (P06493 whole entry): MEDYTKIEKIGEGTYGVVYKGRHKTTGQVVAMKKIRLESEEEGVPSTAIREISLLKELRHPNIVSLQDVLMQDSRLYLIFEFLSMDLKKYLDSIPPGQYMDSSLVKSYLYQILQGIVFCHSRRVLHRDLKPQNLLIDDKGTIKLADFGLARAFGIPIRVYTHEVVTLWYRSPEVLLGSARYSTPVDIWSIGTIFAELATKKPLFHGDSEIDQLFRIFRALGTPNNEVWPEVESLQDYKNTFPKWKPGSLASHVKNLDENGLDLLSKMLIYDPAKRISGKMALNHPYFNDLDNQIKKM
Sequence of CDK1/CCNB1 (P14635 whole entry partner): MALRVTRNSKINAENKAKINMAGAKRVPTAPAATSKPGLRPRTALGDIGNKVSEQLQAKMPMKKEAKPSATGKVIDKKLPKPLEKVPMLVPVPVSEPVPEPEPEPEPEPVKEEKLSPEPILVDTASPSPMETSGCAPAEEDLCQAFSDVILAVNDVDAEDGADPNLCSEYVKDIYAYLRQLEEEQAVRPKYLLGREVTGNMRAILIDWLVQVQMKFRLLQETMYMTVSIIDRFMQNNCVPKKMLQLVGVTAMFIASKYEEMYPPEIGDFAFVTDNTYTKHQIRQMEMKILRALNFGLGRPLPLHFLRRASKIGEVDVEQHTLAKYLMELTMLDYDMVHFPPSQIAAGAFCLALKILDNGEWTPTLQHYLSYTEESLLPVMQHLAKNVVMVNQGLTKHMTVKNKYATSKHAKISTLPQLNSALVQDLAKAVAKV

The mark [1] stands for this setting: >250 nM marked x, read-out: CDK2/CCNE IC50 >250 nM.
[2] abbreviates: >250 nM marked x, read-out: CDK1/CCNB IC50 >250 nM.
Setting [3] is: 25-250 nM marked x, read-out: CDK2/CCNE IC50 25-250 nM.
Where [4] appears, read: 25-250 nM marked x, read-out: CDK1/CCNB IC50 25-250 nM.
[5] abbreviates: <25 nM, read-out: CDK2/CCNE IC50 <25 nM.

With `CC(C)S(=O)(=O)N1CCC(c2nccc3cnc(Nc4ccc(S(C)(=O)=O)cc4)cc23)CC1` [Ex 176, 5-(1-(isopropylsulfonyl)piperidin-4-yl)-N-(4-(methylsulfonyl)phenyl)-2,6-naphthyridin-3-amine], the IC50 on CDK2/CCNE1 (setting [1]) and at CDK1/CCNB1 (setting [2]) was more than 250 nM each time.

`CNC(=O)N1CCC(c2nccc3cnc(Nc4ccc(S(C)(=O)=O)cc4)cc23)CC1` [Ex 177, N-methyl-4-(7-((4-(methylsulfonyl)phenyl)amino)-2,6-naphthyridin-1-yl)piperidine-1-carboxamide]: the IC50 at CDK2/CCNE1 (setting [1]) and on CDK1/CCNB1 (setting [2]) was more than 250 nM throughout.

As for `CNC(=O)[C@H]1CC[C@H](c2nccc3cnc(Nc4ccc(S(C)(=O)=O)cc4)cc32)CC1` [Ex 178, (1r,4r)-N-methyl-4-(7-((4-(methylsulfonyl)phenyl)amino)-2,6-naphthyridin-1-yl)cyclohexane-1-carboxamide], the figures for the IC50 at CDK2/CCNE1 (setting [3]) and at CDK1/CCNB1 (setting [2]) were 25 to 250 nM and more than 250 nM, respectively.

Consider `CCNC(=O)[C@H]1CC[C@H](c2nccc3cnc(Nc4ccc(S(C)(=O)=O)cc4)cc32)CC1` [Ex 179, (1r,4r)-N-ethyl-4-(7-((4-(methylsulfonyl)phenyl)amino)-2,6-naphthyridin-1-yl)cyclohexane-1-carboxamide], for which the IC50 is 25 to 250 nM on CDK2/CCNE1 (setting [3]) and more than 250 nM on CDK1/CCNB1 (setting [2]).

With `CCCNC(=O)[C@H]1CC[C@H](c2nccc3cnc(Nc4ccc(S(C)(=O)=O)cc4)cc32)CC1` [Ex 180, (1r,4r)-4-(7-((4-(methylsulfonyl)phenyl)amino)-2,6-naphthyridin-1-yl)-N-propylcyclohexane-1-carboxamide], the IC50 is 25 to 250 nM at CDK2/CCNE1 (setting [3]) and more than 250 nM on CDK1/CCNB1 (setting [2]).

Turning to `CC(C)NC(=O)[C@H]1CC[C@H](c2nccc3cnc(Nc4ccc(S(C)(=O)=O)cc4)cc32)CC1` [Ex 181, (1r,4r)-N-isopropyl-4-(7-((4-(methylsulfonyl)phenyl)amino)-2,6-naphthyridin-1-yl)cyclohexane-1-carboxamide], the IC50 at CDK2/CCNE1 (setting [1]) and at CDK1/CCNB1 (setting [2]) was more than 250 nM in each case.

Regarding `Cc1c(-c2nccc3cnc(Nc4ccc(S(C)(=O)=O)cc4)cc23)ccc2c1cnn2C1CCNCC1` [Ex 182, 5-(4-methyl-1-(piperidin-4-yl)-1H-indazol-5-yl)-N-(4-(methylsulfonyl)phenyl)-2,6-naphthyridin-3-amine], the IC50 is 25 to 250 nM on CDK2/CCNE1 (setting [3]) and more than 250 nM on CDK1/CCNB1 (setting [2]).

As for `CS(=O)(=O)c1ccc(Nc2cc3c(N4CCCCC4)nc(C=O)cc3cn2)cc1` [Ex 186, 7-((4-(methylsulfonyl)phenyl)amino)-1-(piperidin-1-yl)-2,6-naphthyridine-3-carbaldehyde], the IC50 was 25 to 250 nM at CDK2/CCNE1 (setting [3]) and more than 250 nM at CDK1/CCNB1 (setting [2]).

Turning to `C=CS(=O)(=O)c1ccc(Nc2cc3c(N4CC(C#N)C4)nccc3cn2)cc1` [Ex 188, 1-(7-((4-(vinylsulfonyl)phenyl)amino)-2,6-naphthyridin-1-yl)azetidine-3-carbonitrile], the IC50 on CDK2/CCNE1 (setting [3]) was 25 to 250 nM; at CDK1/CCNB1 (setting [2]), more than 250 nM.

For `Cc1c(-c2nccc3cnc(Nc4ccc(S(C)(=O)=O)cc4)cc23)ccc2c1cnn2CCC#N` [Ex 194, 3-(4-methyl-5-(7-((4-(methylsulfonyl)phenyl)amino)-2,6-naphthyridin-1-yl)-1H-indazol-1-yl)propanenitrile], the IC50 at CDK2/CCNE1 (setting [3]) is 25 to 250 nM; on CDK1/CCNB1 (setting [2]), more than 250 nM.

Turning to `Cc1c(-c2nccc3cnc(Nc4ccc(S(C)(=O)=O)cc4)cc23)ccc2nn(CC3CNC3)cc12` [Ex 196, 5-(2-(azetidin-3-ylmethyl)-4-methyl-2H-indazol-5-yl)-N-(4-(methylsulfonyl)phenyl)-2,6-naphthyridin-3-amine], the results for the IC50 at CDK2/CCNE1 (setting [3]) and on CDK1/CCNB1 (setting [2]) were 25 to 250 nM and more than 250 nM, respectively.

Regarding `Cc1c(-c2nccc3cnc(Nc4ccc(S(C)(=O)=O)cc4)cc23)ccc2nn(CCC#N)cc12` [Ex 197, 3-(4-methyl-5-(7-((4-(methylsulfonyl)phenyl)amino)-2,6-naphthyridin-1-yl)-2H-indazol-2-yl)propanenitrile], the IC50 at CDK2/CCNE1 (setting [3]) was 25 to 250 nM; at CDK1/CCNB1 (setting [2]) it was more than 250 nM.

On to `C=CS(=O)(=O)c1ccc(Nc2cc3c(-c4ccc5[nH]ncc5c4)nccc3cn2)cc1` [Ex 205, 5-(1H-indazol-5-yl)-N-(4-(vinylsulfonyl)phenyl)-2,6-naphthyridin-3-amine], for which the figures for the IC50 at CDK2/CCNE1 (setting [3]) and on CDK1/CCNB1 (setting [2]) were 25 to 250 nM and more than 250 nM, respectively.

For `Cc1c(-c2nccc3cnc(Nc4ccc(S(C)(=O)=O)cc4)cc23)ccc2nn(CCC3CNC3)cc12` [Ex 208, 5-(2-(2-(azetidin-3-yl)ethyl)-4-methyl-2H-indazol-5-yl)-N-(4-(methylsulfonyl)phenyl)-2,6-naphthyridin-3-amine], the IC50 at CDK2/CCNE1 (setting [3]) was 25 to 250 nM; at CDK1/CCNB1 (setting [2]), more than 250 nM.

Consider `C=CS(=O)(=O)c1ccc(Nc2cc3c(-c4cc5cn[nH]c5cc4C)nccc3cn2)cc1` [Ex 209, 5-(6-methyl-1H-indazol-5-yl)-N-(4-(vinylsulfonyl)phenyl)-2,6-naphthyridin-3-amine], for which the IC50 was 25 to 250 nM at CDK2/CCNE1 (setting [3]) and more than 250 nM at CDK1/CCNB1 (setting [2]).

Consider `N#CC1CCN(c2nccc3cnc(Nc4ccc(O)c(CO)c4)cc23)CC1` [Ex 210, 1-(7-((4-hydroxy-3-(hydroxymethyl)phenyl)amino)-2,6-naphthyridin-1-yl)piperidine-4-carbonitrile], for which the IC50 on CDK2/CCNE1 (setting [3]) and at CDK1/CCNB1 (setting [4]) was 25 to 250 nM each time.

With `CC1(C#N)CCN(c2nccc3cnc(NC4CCN(S(C)(=O)=O)CC4)cc23)CC1` [Ex 212, 4-methyl-1-(7-((1-(methylsulfonyl)piperidin-4-yl)amino)-2,6-naphthyridin-1-yl)piperidine-4-carbonitrile], the figures for the IC50 at CDK2/CCNE1 (setting [3]) and at CDK1/CCNB1 (setting [2]) were 25 to 250 nM and more than 250 nM, respectively.

For `N#CC1CCN(c2nccc3cnc(Nc4cccc(C(=O)ON5C(=O)CCC5=O)c4)cc23)CC1` [Ex 258, 2,5-dioxopyrrolidin-1-yl 3-((5-(4-cyanopiperidin-1-yl)-2,6-naphthyridin-3-yl)amino)benzoate], the IC50 on CDK2/CCNE1 (setting [5]) is less than 25 nM; at CDK1/CCNB1 (<25 nM, read-out: CDK1/CCNB IC50 <25 nM), less than 25 nM.

`CS(=O)(=O)c1ccc(Nc2cc3c(N4CCC(C#N)CC4)nccc3cn2)cc1` [Ex 259, 1-(7-((4-(methylsulfonyl)phenyl)amino)-2,6-naphthyridin-1-yl)piperidine-4-carbonitrile]: the figures for the IC50 on CDK2/CCNE1 (setting [3]) and at CDK1/CCNB1 (setting [2]) were 25 to 250 nM and more than 250 nM, respectively.

As for `Cc1cc2c(cnn2C)cc1-c1nccc2cnc(NC3CCN(S(C)(=O)=O)CC3)cc12` [Ex 262, 5-(1,6-dimethyl-1H-indazol-5-yl)-N-(1-(methylsulfonyl)piperidin-4-yl)-2,6-naphthyridin-3-amine], the IC50 at CDK2/CCNE1 (setting [5]) is less than 25 nM; on CDK1/CCNB1 (setting [4]), 25 to 250 nM.

Turning to `Cn1cc(-c2nccc3cnc(NC4CCN(S(C)(=O)=O)CC4)cc23)cn1` [Example 4, 5-(1-methyl-1H-pyrazol-4-yl)-N-(1-(methylsulfonyl)piperidin-4-yl)-2,6-naphthyridin-3-amine], the results for the IC50 on CDK2/CCNE1 (setting [3]) and on CDK1/CCNB1 (setting [2]) were 25 to 250 nM and more than 250 nM, respectively.

Consider `COc1nccc2cnc(NC3CCN(S(C)(=O)=O)CC3)cc12` [Example 5, 5-methoxy-N-(1-(methylsulfonyl)piperidin-4-yl)-2,6-naphthyridin-3-amine], for which the figures for the IC50 at CDK2/CCNE1 (setting [3]) and at CDK1/CCNB1 (setting [2]) were 25 to 250 nM and more than 250 nM, respectively.

As for `CS(=O)(=O)N1CCC(Nc2cc3c(-c4ccccn4)nccc3cn2)CC1` [Example 8, N-(1-(methylsulfonyl)piperidin-4-yl)-5-(pyridin-2-yl)-2,6-naphthyridin-3-amine], the IC50 at CDK2/CCNE1 (setting [3]) was 25 to 250 nM; at CDK1/CCNB1 (setting [2]), more than 250 nM.
